Assay results taken from patent US11174260B2, “Compounds and methods for the treatment of parasitic diseases” (THE BROAD INSTITUTE, INC., priority 2017, dated 2021).
Where two headings read alike, the source gives them in different places.

Tested on: P. falciparum Dd2
Assay: In vitro P. falciparum blood-stage culture and assay
Format: cell-based
Conditions: 72 h incubation, SYBR Green I readout, read-out: Pf Dd2
Experimental: Strains of P. falciparum (Dd2, 3D7, D6, K1, NF54, V1/3, HB3, 7G8, FCB and TM90C2B) were obtained from the Malaria Research and Reference Reagent Resource Center (MR4). P. falciparum isolates were maintained with O-positive human blood in an atmosphere of 93% N2, 4% CO2, 3% O2 at 37° C. in complete culturing medium (10.4 g/L RPMI 1640, 5.94 g/L HEPES, 5 g/L albumax II, 50 mg/L hypoxanthine, 2.1 g/L sodium bicarbonate, 10% human serum and 43 mg/L gentamicin). Parasites were cultured in medium until parasitaemia reached 3-8%. Parasitaemia was determined by checking at least 500 red blood cells from a Giemsa-stained blood smear. For the compound screening, a parasite dilution at 2.0% parasitaemia and 2.0% haematocrit was created with medium. 25 μl of medium was dispensed into 384-well black, clear-bottom plates and 100 nl of each compound in DMSO was transferred into assay plates along with the control compound (mefloquine). Next, 25 μl of the parasite suspension in medium was dispensed into the assay plates giving a final parasitaemia of 1% and a final haematocrit of 1%. The assay plates were incubated for 72 h at 37° C. 10 μl of detection reagent consisting of 10×SYBR Green I (Invitrogen; supplied in 10,000× concentration) in lysis buffer (20 mM Tris-HCl, 5 mM EDTA, 0.16% (w/v) Saponin, 1.6% (v/v) Triton X-100) was dispensed into the assay plates. For optimal staining, the assay plates were left at room temperature for 24 h in the dark. The assay plates were read with 505 dichroic mirrors with 485 nm excitation and 530 nm emission settings in an Envision (PerkinElmer).

[1] = Plasmodium falciparum, DD2, 72 h

| Compound | EC50 [1] [nM] | EC50 [nM] |
| --- | --- | --- |
| COc1ccc(NC(=O)N2CC[C@@H](N(C)C)CN3[C@H](CO)[C@H](c4ccc(C#Cc5ccccc5)cc4)[C@@H]3C2)cc1 [Example E28, (3R,8R,9R,10S)-3-(dimethylamino)-10-(hydroxymethyl)-N-(4-methoxyphenyl)-9-[4-(2-phenylethynyl)phenyl]-1,6-diazabicyclo[6.2.0]decane-6-carboxamide] | 50 to 250 | – |
| COc1ccc(NC(=O)N2C[C@@H](O)CCN3[C@H](CN(C)C)[C@H](c4ccc(C#Cc5ccccc5)cc4)[C@@H]3C2)cc1 [Example E24, (4S,8R,9S,10S)-10-[(dimethylamino)methyl]-4-hydroxy-N-(4-methoxyphenyl)-9-[4-(2-phenylethynyl)phenyl]-1,6-diazabicyclo[6.2.0]decane-6-carboxamide] | > 250 | – |
| CCN(CC)C[C@@H]1[C@H](c2ccc(C#Cc3ccccc3)cc2)[C@@H]2CN(C(=O)Nc3ccc(OC)cc3)C[C@@H](O)[C@@H](O)CN12 [Example E9, (3S,4R,8R,9S,10S)-10-(diethylaminomethyl)-3,4-dihydroxy-N-(4-methoxyphenyl)-9-[4-(2-phenylethynyl)phenyl]-1,6-diazabicyclo[6.2.0]decane-6-carboxamide] | < 50 | – |
| COc1ccc(NC(=O)N2C[C@@H](N(C)C)CCN3[C@H](CO)[C@H](c4ccc(C#Cc5ccccc5)cc4)[C@@H]3C2)cc1 [Example E3, (4S,8R,9R,10S)-4-(dimethylamino)-10-(hydroxymethyl)-N-(4-methoxyphenyl)-9-(4-(phenylethynyl)phenyl)-1,6-diazabicyclo[6.2.0]decane-6-carboxamide] | > 250 | – |
| COc1ccc(NC(=O)N2CC(CN(C)C)CCN3[C@H](CO)[C@H](c4ccc(C#Cc5ccccc5)cc4)[C@@H]3C2)cc1 (stereo partly drawn) [Example E31, (8R,9R,10S)-4-((dimethylamino)methyl)-10-(hydroxymethyl)-N-(4-methoxyphenyl)-9-(4-(phenylethynyl)phenyl)-1,6-diazabicyclo[6.2.0]decane-6-carboxamide] | > 250 | – |
| CN(C)C[C@@H]1[C@H](c2ccc(C#Cc3ccccc3)cc2)[C@@H]2CN(C(=O)Nc3ccc(OC4CC4)cc3)C[C@@H](O)[C@@H](O)CN12 (single isomer, unassigned) [Example E1] | < 50 | – |
| COc1ccc(NC(=O)N2C[C@H](O)[C@H](O)CN3[C@H](CO)[C@H](c4ccc(C#Cc5cccnc5)cc4)[C@@H]3C2)cc1 [Example E23, (3R,4S,8R,9R,10S)-3,4-dihydroxy-10-(hydroxymethyl)-N-(4-methoxyphenyl)-9-(4-(pyridin-3-ylethynyl)phenyl)-1,6-diazabicyclo[6.2.0]decane-6-carboxamide] | 50 to 250 | – |
| COc1ccc(NC(=O)N2C[C@H](O)[C@H](O)CN3[C@H](CN(C)C)[C@H](c4ccc(C#Cc5ccccc5F)cc4)[C@@H]3C2)cc1 [Example E8, (3R,4S,8R,9S,10S)-10-[(dimethylamino)methyl]-9-[4-[2-(2-fluorophenyl)ethynyl]phenyl]-3,4-dihydroxy-N-(4-methoxyphenyl)-1,6-diazabicyclo[6.2.0]decane-6-carboxamide] | 50 to 250 | – |
| COc1ccc(NC(=O)N2CC[C@H](N(C)C)CN3[C@H](CO)[C@H](c4ccc(C#Cc5ccccc5)cc4)[C@@H]3C2)cc1 [Example E29, (3S,8R,9R,10S)-3-(dimethylamino)-10-(hydroxymethyl)-N-(4-methoxyphenyl)-9-(4-(phenylethynyl)phenyl)-1,6-diazabicyclo[6.2.0]decane-6-carboxamide] | 50 to 250 | – |
| COc1ccc(NC(=O)N2C[C@H]3OCCO[C@H]3CN3[C@H](CN(C)C)[C@H](c4ccc(C#Cc5ccccc5)cc4)[C@@H]3C2)cc1 [Example E14, (4aR,7aR,8S,9S,11aS)-9-((dimethylamino)methyl)-N-(4-methoxyphenyl)-8-(4-(phenylethynyl)phenyl)octahydro-2H-azeto[1,2-a][1,4]dioxino[2,3-f][1,4]diazocine-6(3H)-carboxamide] | < 50 | – |
| COc1ccc(NC(=O)N2CC(CO)CCN3[C@H](CN(C)C)[C@H](c4ccc(C#Cc5ccccc5)cc4)[C@@H]3C2)cc1 (stereo partly drawn) [Example E33, (8R,9S,10S)-10-[(dimethylamino)methyl]-4-(hydroxymethyl)-N-(4-methoxyphenyl)-9-[4-(2-phenylethynyl)phenyl]-1,6-diazabicyclo[6.2.0]decane-6-carboxamide] | < 50 | – |
| COc1ccc(NC(=O)N2C[C@@H](O)[C@@H](O)CN3[C@H](CO)[C@H](c4ccc(C#Cc5cccnc5)cc4)[C@@H]3C2)cc1 [Example E22, (3S,4R,8R,9R,10S)-3,4-dihydroxy-10-(hydroxymethyl)-N-(4-methoxyphenyl)-9-(4-(pyridin-3-ylethynyl)phenyl)-1,6-diazabicyclo[6.2.0]decane-6-carboxamide] | > 250 | – |
| COc1ccc(NC(=O)N2C[C@H](O)[C@H](O)CN3[C@H](CN(C)C(C)C)[C@H](c4ccc(C#Cc5ccccc5)cc4)[C@@H]3C2)cc1 [Example E11, (3R,4S,8R,9S,10S)-3,4-dihydroxy-10-[[isopropyl(methyl)amino]methyl]-N-(4-methoxyphenyl)-9-[4-(2-phenylethynyl)phenyl]-1,6-diazabicyclo[6.2.0]decane-6-carboxamide] | 50 to 250 | – |
| COc1ccc(NC(=O)N2C[C@@H](O)[C@@H](O)CN3[C@H](CN(C)C(C)C)[C@H](c4ccc(C#Cc5ccccc5)cc4)[C@@H]3C2)cc1 [Example E10, (3S,4R,8R,9S,10S)-3,4-dihydroxy-10-[[isopropyl(methyl)amino]methyl]-N-(4-methoxyphenyl)-9-[4-(2-phenylethynyl)phenyl]-1,6-diazabicyclo[6.2.0]decane-6-carboxamide] | < 50 | – |
| CN(C)C[C@@H]1[C@H](c2ccc(C#Cc3ccccc3)cc2)[C@@H]2CN(C(=O)Nc3ccc(OC4CC4)cc3)C[C@H](O)[C@H](O)CN12 [Example E38, (3R,4S,8R,9S,10S)-N-(4-cyclopropoxyphenyl)-10-((dimethylamino)methyl)-3,4-dihydroxy-9-(4-(phenylethynyl)phenyl)-1,6-diazabicyclo[6.2.0]decane-6-carboxamide] | < 50 | – |
| COc1ccc(NC(=O)N2C[C@@H](O)[C@@H](O)CN3[C@H](CN(C)C)[C@H](c4ccc(C#Cc5cccc(F)c5F)cc4)[C@@H]3C2)cc1 [Example E12, (3S,4R,8R,9S,10S)-9-(4-((2,3-difluorophenyl)ethynyl)phenyl)-10-((dimethylamino)methyl)-3,4-dihydroxy-N-(4-methoxyphenyl)-1,6-diazabicyclo[6.2.0]decane-6-carboxamide] | 50 to 250 | – |
| COc1ccc(NC(=O)N2C[C@@H](O)[C@@H](O)CN3[C@H](CN(C)C)[C@H](c4ccc(C#Cc5ccccc5)cc4)[C@@H]3C2)cc1 [Example E5, (3S,4R,8R,9S,10S)-10-((dimethylamino)methyl)-3,4-dihydroxy-N-(4-methoxyphenyl)-9-(4-(phenylethynyl)phenyl)-1,6-diazabicyclo[6.2.0]decane-6-carboxamide] | < 50 | – |
| COc1ccc(NC(=O)N2C[C@H](O)[C@H](O)CN3C[C@H](c4ccc(C#Cc5ccccc5)cc4)[C@@H]3C2)cc1 [Example E37, (3R,4S,8R,9S)-3,4-dihydroxy-N-(4-methoxyphenyl)-9-[4-(2-phenylethynyl)phenyl]-1,6-diazabicyclo[6.2.0]decane-6-carboxamide] | 50 to 250 | – |
| COc1ccc(NC(=O)N2CCC(CN(C)C)CN3[C@H](CN(C)C)[C@H](c4ccc(C#Cc5ccccc5)cc4)[C@@H]3C2)cc1 (stereo partly drawn) [Example E25, (8R,9S,10S)-3,10-bis[(dimethylamino)methyl]-N-(4-methoxyphenyl)-9-[4-(2-phenylethynyl)phenyl]-1,6-diazabicyclo[6.2.0]decane-6-carboxamide] | 50 to 250 | – |
| COc1ccc(NC(=O)N2CC(CN(C)C)CCN3[C@H](CN(C)C)[C@H](c4ccc(C#Cc5ccccc5)cc4)[C@@H]3C2)cc1 (stereo partly drawn) [Example E32, (8R,9S,10S)-4,10-bis[(dimethylamino)methyl]-N-(4-methoxyphenyl)-9-[4-(2-phenylethynyl)phenyl]-1,6-diazabicyclo[6.2.0]decane-6-carboxamide] | > 250 | – |
| COc1ccc(NC(=O)N2C[C@@H](O)[C@@H](O)CN3[C@H](CN(C)C)[C@H](c4ccc(C#Cc5ccccc5F)cc4)[C@@H]3C2)cc1 [Example E7, (3S,4R,8R,9S,10S)-10-[(dimethylamino)methyl]-9-[4-[2-(2-fluorophenyl)ethynyl]phenyl]-3,4-dihydroxy-N-(4-methoxyphenyl)-1,6-diazabicyclo[6.2.0]decane-6-carboxamide] | < 50 | – |
| COc1ccc(NC(=O)N2CCC(O)CN3[C@H](CN(C)C)[C@H](c4ccc(C#Cc5ccccc5)cc4)[C@@H]3C2)cc1 (single isomer, unassigned) [Example E16] | – | > 250 |
| COc1ccc(NC(=O)N2C[C@@H](OC)[C@@H](OC)CN3[C@H](CN(C)C)[C@H](c4ccc(C#Cc5ccccc5)cc4)[C@@H]3C2)cc1 [Example E2, (3S,4R,8R,9S,10S)-10-((dimethylamino)methyl)-3,4-dimethoxy-N-(4-methoxyphenyl)-9-(4-(phenylethynyl)phenyl)-1,6-diazabicyclo[6.2.0]decane-6-carboxamide] | < 50 | – |
